Publication PMC9516332 (Frontiers in Oncology, 2022)
Read-outs that look alike come from different tables or passages of the source.

Experiments:
[1] = test system: 134 cancer cell lines; assay: Cell viability assay (ATPlite, 72 hours), IC50 on cancer cell line panel
[2] = test system: AP-1060 (ETV6-NTRK3); assay: Cell viability assay; details: read-out: IC50 in cell proliferation assay

**Q.** Which results are given for `Cc1cc(Nc2ncnc3ccc(NC4=NC(C)(C)CO4)cc23)ccc1Oc1ccn2ncnc2c1` [tucatinib]?
**A.** IC50 ([1]; Homo sapiens, MOLT-4, read-out: IC50 in cell proliferation assay, MOLT-4 cell line): 20.3 µM; IC50 ([1]; Homo sapiens, MV4-11, read-out: IC50 in cell proliferation assay, MV4-11 cell line (FLT3 ITD)): 19.1 µM; IC50 ([1]; Homo sapiens, MeWo, read-out: IC50 in cell proliferation assay, MeWo cell line): > 31.6 µM; IC50 ([1]; Homo sapiens, NCCIT, read-out: IC50 in cell proliferation assay, NCC-IT cell line): > 31.6 µM; IC50 ([1]; Homo sapiens, NCI-H82, read-out: IC50 in cell proliferation assay, cell line NCI-H82): 20.4 µM; IC50 ([1]; Homo sapiens, NCI-H460, read-out: IC50 in cell proliferation assay, NCI-H460 cell line): 30.4 µM; IC50 ([1]; Homo sapiens, NCI-H661, read-out: IC50 in cell proliferation assay, NCI-H661 cell line): 26.9 µM; IC50 ([1]; Homo sapiens, NCI-H716, read-out: IC50 in cell proliferation assay, cell line NCI-H716 (FGFR2-COL14A1)): 29.5 µM; IC50 ([1]; Homo sapiens, NCI-H1650, read-out: IC50 in cell proliferation assay, NCI-H1650 cell line (EGFR exon19del)): > 31.6 µM; IC50 ([1]; Homo sapiens, NCI-H1975, read-out: IC50 in cell proliferation assay, NCI-H1975 cell line (EGFR p.L858R + p.T790M)): 24.5 µM; IC50 ([1]; Homo sapiens, NCI-H2228, read-out: IC50 in cell proliferation assay, NCI-H2228 cell line (EML4-ALK)): > 31.6 µM; IC50 ([1]; Homo sapiens, OVCAR-3, read-out: IC50 in cell proliferation assay, cell line OVCAR-3): > 31.6 µM; IC50 ([1]; Homo sapiens, PFSK-1, read-out: IC50 in cell proliferation assay, cell line PFSK-1): 19 µM; IC50 ([1]; Homo sapiens, RL95-2, read-out: IC50 in cell proliferation assay, cell line RL95-2 (EGFR p.A289V)): 1.76 µM; IC50 ([1]; Homo sapiens, RPMI-7951, read-out: IC50 in cell proliferation assay, cell line RPMI-7951 (BRAF p.V600E)): 15.8 µM; IC50 ([1]; Homo sapiens, RS4-11, read-out: IC50 in cell proliferation assay, cell line RS4;11): 24.4 µM; IC50 ([1]; Homo sapiens, Rec1, read-out: IC50 in cell proliferation assay, cell line REC-1): 12 µM; IC50 ([1]; Homo sapiens, SHP77, read-out: IC50 in cell proliferation assay, cell line SHP-77): 22.8 µM; IC50 ([1]; Homo sapiens, SK-BR-3, read-out: IC50 in cell proliferation assay, cell line SK-BR-3 (ERBB2 amplification)): 0.022 µM; IC50 ([1]; Homo sapiens, SK-N-AS, read-out: IC50 in cell proliferation assay, cell line SK-N-AS): 25.2 µM; IC50 ([1]; Homo sapiens, SK-N-FI, read-out: IC50 in cell proliferation assay, cell line SK-N-FI): > 31.6 µM; IC50 ([1]; Homo sapiens, SK-N-MC, read-out: IC50 in cell proliferation assay, cell line SK-N-MC): 15.1 µM; IC50 ([1]; Homo sapiens, SK-N-SH, read-out: IC50 in cell proliferation assay, cell line SK-N-SH (ALK p.F1174L)): 24.9 µM; IC50 ([1]; Homo sapiens, SNU-5, read-out: IC50 in cell proliferation assay, cell line SNU-5 (MET amplification)): 24.6 µM; IC50 ([1]; Homo sapiens, SNU-16, read-out: IC50 in cell proliferation assay, cell line SNU-16 (FGFR2 amplification)): 20.5 µM; IC50 ([1]; Homo sapiens, SNU-C2B, read-out: IC50 in cell proliferation assay, cell line SNU-C2B (EGFR p.R165Q)): > 31.6 µM; IC50 ([1]; Homo sapiens, SU-DHL-1, read-out: IC50 in cell proliferation assay, cell line SU-DHL-1 (NPM1-ALK)): 15.7 µM; IC50 ([1]; Homo sapiens, SU-DHL-6, read-out: IC50 in cell proliferation assay, cell line SU-DHL-6): 15.3 µM; IC50 ([1]; Homo sapiens, SUP-T1, read-out: IC50 in cell proliferation assay, cell line SUP-T1): > 31.6 µM; IC50 ([1]; Homo sapiens, SW48, read-out: IC50 in cell proliferation assay, cell line SW48 (EGFR p.G719S)): 17.4 µM; IC50 ([1]; Homo sapiens, SW480, read-out: IC50 in cell proliferation assay, cell line SW480): > 31.6 µM; IC50 ([1]; Homo sapiens, SW626, read-out: IC50 in cell proliferation assay, cell line SW626): 23.5 µM; IC50 ([1]; Homo sapiens, SW780, read-out: IC50 in cell proliferation assay, cell line SW780 (FGFR3-BAIAP2L1)): 22.7 µM; IC50 ([1]; Homo sapiens, SW837, read-out: IC50 in cell proliferation assay, cell line SW837): > 31.6 µM; IC50 ([1]; Homo sapiens, SW872, read-out: IC50 in cell proliferation assay, cell line SW872 (BRAF p.V600E)): 31.4 µM; IC50 ([1]; Homo sapiens, SW900, read-out: IC50 in cell proliferation assay, cell line SW900): > 31.6 µM; IC50 ([1]; Homo sapiens, SW948, read-out: IC50 in cell proliferation assay, cell line SW948): > 31.6 µM; IC50 ([1]; Homo sapiens, SW982, read-out: IC50 in cell proliferation assay, cell line SW982 (BRAF p.V600E)): > 31.6 µM; IC50 ([1]; Homo sapiens, SW-620, read-out: IC50 in cell proliferation assay, cell line SW620): > 31.6 µM; IC50 ([1]; Homo sapiens, T98G, read-out: IC50 in cell proliferation assay, cell line T98G): 30.1 µM; IC50 ([1]; Homo sapiens, TCC-SUP, read-out: IC50 in cell proliferation assay, cell line TCCSUP): 30.4 µM; IC50 ([1]; Homo sapiens, THP-1, read-out: IC50 in cell proliferation assay, cell line THP-1): > 31.6 µM; IC50 ([1]; Homo sapiens, U2OS, read-out: IC50 in cell proliferation assay, cell line U2OS): 22.1 µM; IC50 ([1]; Homo sapiens, U-87 MG, read-out: IC50 in cell proliferation assay, cell line U-87MG ATCC): > 31.6 µM; IC50 ([1]; Homo sapiens, U-118-MG, read-out: IC50 in cell proliferation assay, cell line U-118MG): 25 µM; IC50 ([1]; Homo sapiens, UMUC3, read-out: IC50 in cell proliferation assay, cell line UM-UC-3): 8.4 µM; IC50 ([1]; Hs766T, read-out: IC50 in cell proliferation assay, Hs 766T cell line): > 31.6 µM; IC50 ([1]; L-82, read-out: IC50 in cell proliferation assay, L-82 cell line (NPM1-ALK)): > 31.6 µM; IC50 ([1]; Rh30, read-out: IC50 in cell proliferation assay, cell line Rh30): 25.8 µM; IC50 ([1]; read-out: IC50 in cell proliferation assay, 11-18 cell line (EGFR p.L858R)): 0.825 µM; IC50 ([1]; read-out: IC50 in cell proliferation assay, Hs 852.T cell line): > 31.6 µM; IC50 ([1]; read-out: IC50 in cell proliferation assay, JAR cell line): 24.1 µM; IC50 ([1]; read-out: IC50 in cell proliferation assay, cell line 5637): 8.88 µM; IC50 ([1]; read-out: IC50 in cell proliferation assay, cell line A-388): 15.9 µM; IC50 ([1]; read-out: IC50 in cell proliferation assay, cell line DB): 19.2 µM; IC50 ([1]; read-out: IC50 in cell proliferation assay, cell line DEL (NPM1-ALK)): > 31.6 µM; IC50 ([1]; read-out: IC50 in cell proliferation assay, cell line ES-2 (BRAF p.V600E)): 18.4 µM; IC50 ([1]; read-out: IC50 in cell proliferation assay, cell line PA-1): 21.1 µM; IC50 ([1]; read-out: IC50 in cell proliferation assay, cell line PC-3): 26.8 µM; IC50 ([1]; read-out: IC50 in cell proliferation assay, cell line RD): 28.8 µM; IC50 ([1]; read-out: IC50 in cell proliferation assay, cell line RKO (BRAF p.V600E)): 13.1 µM; IC50 ([1]; read-out: IC50 in cell proliferation assay, cell line RL): 24 µM; IC50 ([1]; read-out: IC50 in cell proliferation assay, cell line RT-4 (FGFR3-TACC3)): 9.99 µM; IC50 ([1]; read-out: IC50 in cell proliferation assay, cell line SR (NPM1-ALK)): 16.8 µM; IC50 ([1]; read-out: IC50 in cell proliferation assay, cell line T24): 20.1 µM; IC50 ([1]; read-out: IC50 in cell proliferation assay, cell line TT (RET p.C634W)): > 31.6 µM; IC50 ([1]; read-out: IC50 in cell proliferation assay, cell line VA-ES-BJ): 25.9 µM; IC50 [2]: 29.1 µM
